For the first assay, the target named is T1, His-hMAGL (recombinant polyhistidine tagged human MAGL protein) (Homo sapiens, UniProt Q99685).
T1 construct: polyhistidine (His) (N); made in house; host or cells: E. coli BL21(DE3)
T1 sequence (Q99685 1-303): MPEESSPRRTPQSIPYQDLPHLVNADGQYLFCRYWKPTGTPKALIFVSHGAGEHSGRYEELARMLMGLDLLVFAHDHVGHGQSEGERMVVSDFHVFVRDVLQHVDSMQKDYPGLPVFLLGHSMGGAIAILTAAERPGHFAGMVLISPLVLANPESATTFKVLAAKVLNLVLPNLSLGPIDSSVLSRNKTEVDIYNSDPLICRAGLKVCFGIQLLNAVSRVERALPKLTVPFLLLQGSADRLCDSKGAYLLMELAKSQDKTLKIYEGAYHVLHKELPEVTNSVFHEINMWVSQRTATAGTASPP
The assay is described as follows: Measurement of MAGL inhibitory activity (RapidFire-mass spectrometry of arachidonic acid produced from 2-arachidonylglycerol). It is filed as biochemical. Particulars: test compound 10 μM; His-hMAGL; substrate 2-arachidonylglycerol; 60 min preincubation. The protocol: Furthermore, acetonitrile (50 μL) containing 3 μM arachidonic acid-d8 (Cayman Chemical Company) was added and the mixture was stirred.
The amount of arachidonic acid in the obtained enzyme reaction mixture was calculated by measuring by RapidFire-mass spectrometry and correcting by the amount of arachidonic acid-d8. High Throughput online solid phase extraction was performed using RapidFire 300™ system (Agilent Technologies, Inc.). Samples were loaded on SPE C4 cartridge (Agilent Technologies, Inc.) and desalted with 0.2 (v/v) % acetic acid (Wako Pure Chemical Industries, Ltd.) in ultrapure water/acetonitrile (70/30, v/v) at a flow rate of 1.5 mL/min, eluted at a flow rate of 0.5 mL/min with 0.2(v/v) % acetic acid dissolved in acetonitrile/ultrapure water (90/10, v/v), and injected into the mass spectrometry part. The injection needle was washed with ultrapure water (500 millisecond) and acetonitrile (500 millisecond) to minimize carry-over. […] The RapidFire300 system was controlled by RapidFire UI software version 3.6 (Agilent Technologies, Inc.).
The mass spectrometry of the resultant product was performed using API4000™ triple quadrupole mass spectrometer (AB SCIEX) equipped with an electrospray ion source (TurboIon Spray™) in a negative selected reaction monitoring (SRM) mode. The conditions of SRM are shown below. The parameters of the instrument were optimized as follows: capillary temperature 600° C., ion spray voltage −4.5 kV, collision gas 8, curtain gas 15 psi, ion source gas 1 60 psi, ion source gas 2 60 psi. The mass spectrometer was controlled by Analyst™ software version 1.5.1 (AB SCIEX). The peak area integration was analyzed using RapidFire integrator software version 3.6 (Agilent Technologies, Inc.).
MAGL inhibitory rate (%) was calculated according to the following calculation formula. (1-(arachidonic acid production amount of test compound addition group−arachidonic acid production amount of enzyme-free group)÷(arachidonic acid production amount of test compound-free group−arachidonic acid production amount of enzyme-free group))×100
Regarding `CC(Oc1ccc(C(F)(F)F)cc1F)C1CN(C(=O)[C@H]2C[C@]3(COC(=O)N3)C2)C1` (stereo partly shown) [Example 13, (2s,4s)-2-((3-(1-(2-fluoro-4-(trifluoromethyl)phenoxy)ethyl)azetidin-1-yl)carbonyl)-7-oxa-5-azaspiro[3.4]octan-6-one], the “% inhibition (10 μM)” value turned out to be 100%.

Take `CC(Oc1ccc(C(F)(F)F)cc1F)C1CN(C(=O)[C@H]2C[C@]3(COC(=O)N3)C2)C1` (stereo partly shown) [Example 14, (2s,4s)-2-((3-(1-(2-fluoro-4-(trifluoromethyl)phenoxy)ethyl)azetidin-1-yl)carbonyl)-7-oxa-5-azaspiro[3.4]octan-6-one]: the “% inhibition (10 μM)” value was 100%.

Staying with this assay, now noted: test compound 10 μM; His-hMAGL; substrate 2-arachidonylglycerol; 60 min preincubation; 10 µM.
Take `CC(Oc1ccc(F)cc1F)C1CCN(C(=O)[C@H]2C[C@]3(COC(=O)N3)C2)CC1` (stereo partly shown) [Example 21, (2s,4s)-2-((4-(1-(2,4-difluorophenoxy)ethyl)piperidin-1-yl)carbonyl)-7-oxa-5-azaspiro[3.4]octan-6-one]: the “% inhibition (10 μM)” value was 100%. `CC(Oc1ccc(F)cc1F)C1CCN(C(=O)[C@H]2C[C@]3(COC(=O)N3)C2)CC1` (stereo partly shown) [Example 22, (2s,4s)-2-((4-(1-(2,4-difluorophenoxy)ethyl)piperidin-1-yl)carbonyl)-7-oxa-5-azaspiro[3.4]octan-6-one]: the “% inhibition (10 μM)” value stood at 101%. As for `CC(Oc1ccc(Cl)cc1F)C1CCN(C(=O)[C@H]2C[C@]3(COC(=O)N3)C2)CC1` (stereo partly shown) [Example 31, (2s,4s)-2-((4-(1-(4-chloro-2-fluorophenoxy)ethyl)piperidin-1-yl)carbonyl)-7-oxa-5-azaspiro[3.4]octan-6-one], the “% inhibition (10 μM)” value is recorded as 101%. In the case of `CC(Oc1ccc(Cl)cc1F)C1CCN(C(=O)[C@H]2C[C@]3(COC(=O)N3)C2)CC1` (stereo partly shown) [Example 32, (2s,4s)-2-((4-(1-(4-chloro-2-fluorophenoxy)ethyl)piperidin-1-yl)carbonyl)-7-oxa-5-azaspiro[3.4]octan-6-one], the “% inhibition (10 μM)” value is on record as 100%. As for `Cc1cc(F)ccc1OC(C)C1CCN(C(=O)[C@H]2C[C@]3(COC(=O)N3)C2)CC1` (stereo partly shown) [Example 33, (2s,4s)-2-((4-(1-(4-fluoro-2-methylphenoxy)ethyl)piperidin-1-yl)carbonyl)-7-oxa-5-azaspiro[3.4]octan-6-one], the “% inhibition (10 μM)” value was 101%. On the same count and under the same terms, the result for `Cc1cc(F)ccc1OC(C)C1CCN(C(=O)[C@H]2C[C@]3(COC(=O)N3)C2)CC1` (stereo partly shown) [Example 34, (2s,4s)-2-((4-(1-(4-fluoro-2-methylphenoxy)ethyl)piperidin-1-yl)carbonyl)-7-oxa-5-azaspiro[3.4]octan-6-one] reads 101%.

Staying with this assay, now noted: test compound 10 μM; His-hMAGL; substrate 2-arachidonylglycerol; 60 min preincubation; read-out: % inhibition (10 μM).
Consider `CC1(C2CCN(C(=O)[C@H]3C[C@]4(COC(=O)N4)C3)CC2)Cc2cc(F)ccc2O1` (stereo partly shown) [Example 4, (2s,4s)-2-((4-(5-fluoro-2-methyl-2,3-dihydro-1-benzofuran-2-yl)piperidin-1-yl)carbonyl)-7-oxa-5-azaspiro[3.4]octan-6-one], for which the inhibition at 10 µM turned out to be 100%. The same measure, in the same setting: to `CC1(C2CCN(C(=O)[C@H]3C[C@]4(CCC(=O)N4)C3)CC2)Cc2cc(F)ccc2O1` (stereo partly shown) [Example 5, (2r,4s)-2-((4-(5-fluoro-2-methyl-2,3-dihydro-1-benzofuran-2-yl)piperidin-1-yl)carbonyl)-5-azaspiro[3.4]octan-6-one] belongs 100%; to `O=C1N[C@]2(CO1)C[C@H](C(=O)N1CCC(C(F)(F)c3ccc(Cl)cc3Cl)CC1)C2` [Example 8, (2s,4s)-2-((4-((2,4-dichlorophenyl)(difluoro)methyl)piperidin-1-yl)carbonyl)-7-oxa-5-azaspiro[3.4]octan-6-one], 100%. Turning to `O=C1N[C@]2(CO1)C[C@H](C(=O)N1CC(COc3ccc(C(F)(F)F)cc3F)C1)C2` [Example 9, (2s,4s)-2-((3-((2-fluoro-4-(trifluoromethyl)phenoxy)methyl)azetidin-1-yl)carbonyl)-7-oxa-5-azaspiro[3.4]octan-6-one], the inhibition at 10 µM was found to be 100%. For the compound `CC(Oc1ccc(C(F)(F)F)cc1F)C1CN(C(=O)[C@H]2C[C@]3(COC(=O)N3)C2)C1` (stereo partly shown) [Example 10, (2s,4s)-2-((3-(1-(2-fluoro-4-(trifluoromethyl)phenoxy)ethyl)azetidin-1-yl)carbonyl)-7-oxa-5-azaspiro[3.4]octan-6-one], the inhibition at 10 µM is 100%. On to `CC(Oc1ccc(F)cc1F)C1CCN(C(=O)[C@H]2C[C@]3(COC(=O)N3)C2)CC1` (stereo partly shown) [Example 15, (2s,4s)-2-((4-(1-(2,4-difluorophenoxy)ethyl)piperidin-1-yl)carbonyl)-7-oxa-5-azaspiro[3.4]octan-6-one], for which the inhibition at 10 µM was 100%. As for `CC1(C2CCN(C(=O)[C@H]3C[C@]4(COC(=O)N4)C3)CC2)Cc2cc(F)cc(F)c2O1` (stereo partly shown) [Example 16, (2s,4s)-2-((4-(5,7-difluoro-2-methyl-2,3-dihydro-1-benzofuran-2-yl)piperidin-1-yl)carbonyl)-7-oxa-5-azaspiro[3.4]octan-6-one], the inhibition at 10 µM is 100%. On the same count and under the same terms, to `CC(Oc1ccc(Cl)cc1F)C1CCN(C(=O)[C@H]2C[C@]3(CCC(=O)N3)C2)CC1` (stereo partly shown) [Example 17, (2r,4s)-2-((4-(1-(4-chloro-2-fluorophenoxy)ethyl)piperidin-1-yl)carbonyl)-5-azaspiro[3.4]octan-6-one] belongs 100%; to `CC(Oc1ccc(Cl)cc1F)C1CCN(C(=O)[C@H]2C[C@]3(COC(=O)N3)C2)CC1` (stereo partly shown) [Example 18, (2s,4s)-2-((4-(1-(4-chloro-2-fluorophenoxy)ethyl)piperidin-1-yl)carbonyl)-7-oxa-5-azaspiro[3.4]octan-6-one], 101%.

Regarding `O=C1N[C@]2(CO1)C[C@H](C(=O)N1CCC(COc3ccc(C(F)(F)F)cc3Cl)CC1)C2` [Example 19, (2s,4s)-2-((4-((2-chloro-4-(trifluoromethyl)phenoxy)methyl)piperidin-1-yl)carbonyl)-7-oxa-5-azaspiro[3.4]octan-6-one], the inhibition at 10 µM is 101%. Same read-out and setting: the result for `Cc1cc(F)ccc1OC(C)C1CCN(C(=O)[C@H]2C[C@]3(COC(=O)N3)C2)CC1` (stereo partly shown) [Example 20, (2s,4s)-2-((4-(1-(4-fluoro-2-methylphenoxy)ethyl)piperidin-1-yl)carbonyl)-7-oxa-5-azaspiro[3.4]octan-6-one] reads 100%; that for `Cc1ccc(OCC2CCN(C(=O)[C@H]3C[C@]4(COC(=O)N4)C3)CC2)c(F)c1` [Example 23, (2s,4s)-2-((4-((2-fluoro-4-methylphenoxy)methyl)piperidin-1-yl)carbonyl)-7-oxa-5-azaspiro[3.4]octan-6-one], 100%.

Regarding `O=C1N[C@]2(CO1)C[C@H](C(=O)N1CCC(OCc3ccc(Cl)cc3Cl)CC1)C2` [Example 24, (2s,4s)-2-((4-((2,4-dichlorobenzyl)oxy)piperidin-1-yl)carbonyl)-7-oxa-5-azaspiro[3.4]octan-6-one], the inhibition at 10 µM was determined as 100%. Still for that read-out and setting: the result for `O=C1COC[C@]2(C[C@H](C(=O)N3CCC(COc4ccc(F)cc4Cl)CC3)C2)N1` [Example 25, (2s,4s)-2-((4-((2-chloro-4-fluorophenoxy)methyl)piperidin-1-yl)carbonyl)-8-oxa-5-azaspiro[3.5]nonan-6-one] reads 100%; that for `O=C1N[C@]2(CO1)C[C@H](C(=O)N1CCC(COc3ccc(C(F)(F)F)cc3F)CC1)C2` [Example 26, (2s,4s)-2-((4-((2-fluoro-4-(trifluoromethyl)phenoxy)methyl)piperidin-1-yl)carbonyl)-7-oxa-5-azaspiro[3.4]octan-6-one], 101%; that for `CC1(C2CCN(C(=O)[C@H]3C[C@]4(COC(=O)N4)C3)CC2)Cc2cc(F)cc(Cl)c2O1` (stereo partly shown) [Example 27, (2s,4s)-2-((4-(7-chloro-5-fluoro-2-methyl-2,3-dihydro-1-benzofuran-2-yl)piperidin-1-yl)carbonyl)-7-oxa-5-azaspiro[3.4]octan-6-one], 101%. Still for that read-out and setting: the result for `Cc1ccc(OC(C)C2CCN(C(=O)[C@H]3C[C@]4(COC(=O)N4)C3)CC2)c(F)c1` (stereo partly shown) [Example 28, (2s,4s)-2-((4-(1-(2-fluoro-4-methylphenoxy)ethyl)piperidin-1-yl)carbonyl)-7-oxa-5-azaspiro[3.4]octan-6-one] reads 100%.

For the origin of these results see patent US10323026B2, “Heterocyclic compound” (Takeda Pharmaceutical Company Limited, priority 2016, dated 2019).
